Source: the supplement of paper PMC10307832

How the values were obtained:
Experiment in all cases: relative viability (nuclei count vs DMSO), 5 days (fraction); higher = more cells survive
NCI-H2342 = test system: NCI-H2342
In short: (§1)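 Each reported value is a median over duplicate plates. It expresses relative viability: treated-well nuclei count divided by vehicle-well nuclei count. Lung cancer cell lines in 1536-well plates were dosed by pin tool a day after seeding, alone with one drug or with a fixed anchor-drug dose plus five library-drug doses (not always all listed) in √10 steps, and nuclei were counted after 5 days.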

NCI-H1395 = test system: NCI-H1395
In short: as §1

HARA = test system: HARA
In short: as §1

NCI-H1437 = test system: NCI-H1437
In short: as §1

NCI-H2009 = test system: NCI-H2009
In short: as §1

LOU-NH91 = test system: LOU-NH91
In short: as §1

SK-LU-1 = test system: SK-LU-1
In short: as §1

NCI-H2170 = test system: NCI-H2170
In short: as §1

BEN = test system: BEN
In short: as §1

HCC-827 = test system: HCC-827
In short: as §1

NCI-H661 = test system: NCI-H661
In short: as §1

NCI-H1355 = test system: NCI-H1355
In short: as §1

NCI-H2405 = test system: NCI-H2405
In short: as §1

NCI-H1734 = test system: NCI-H1734
In short: as §1

NCI-H2087 = test system: NCI-H2087
In short: as §1

LC-2-ad = test system: LC-2-ad
In short: as §1

NCI-H596 = test system: NCI-H596
In short: as §1

SK-MES-1 = test system: SK-MES-1
In short: as §1

NCI-H2228 = test system: NCI-H2228
In short: as §1

EKVX = test system: EKVX
In short: as §1

NCI-H647 = test system: NCI-H647
In short: as §1

NCI-H1792 = test system: NCI-H1792
In short: as §1

## CC1(C)CCC(c2ccc(Cl)cc2)=C(CN2CCN(c3ccc(C(=O)NS(=O)(=O)c4ccc(N[C@H](CCN5CCOCC5)CSc5ccccc5)c(S(=O)(=O)C(F)(F)F)c4)cc3)CC2)C1 [Navitoclax] + CCNC(=O)c1noc(-c2cc(C(C)C)c(O)cc2O)c1-c1ccc(CN2CCOCC2)cc1 [Luminespib] (partner 0.01 µM)
NCI-H2342; first compound 0.005 µM
  relative viability: 0.683
NCI-H2342; first compound 0.01581 µM
  relative viability: 0.747
NCI-H2342; first compound 0.05 µM
  relative viability: 0.476
NCI-H2342; first compound 0.1581 µM
  relative viability: 0.723
NCI-H2342; first compound 0.5 µM
  relative viability: 0.683
NCI-H1395; first compound 0.005 µM
  relative viability: 0.741
NCI-H1395; first compound 0.01581 µM
  relative viability: 0.836
NCI-H1395; first compound 0.05 µM
  relative viability: 0.714
NCI-H1395; first compound 0.1581 µM
  relative viability: 0.577
NCI-H1395; first compound 0.5 µM
  relative viability: 0.793
HARA; first compound 0.005 µM
  relative viability: 0.941
HARA; first compound 0.01581 µM
  relative viability: 0.678
HARA; first compound 0.1581 µM
  relative viability: 0.562
HARA; first compound 0.5 µM
  relative viability: 0.682
NCI-H1437; first compound 0.005 µM
  relative viability: 1.12
NCI-H1437; first compound 0.01581 µM
  relative viability: 1.1
NCI-H1437; first compound 0.05 µM
  relative viability: 1.09
NCI-H1437; first compound 0.1581 µM
  relative viability: 1.14
NCI-H1437; first compound 0.5 µM
  relative viability: 1.01
NCI-H2009; first compound 0.005 µM
  relative viability: 1.04
NCI-H2009; first compound 0.01581 µM
  relative viability: 1.1
NCI-H2009; first compound 0.05 µM
  relative viability: 1.02
NCI-H2009; first compound 0.1581 µM
  relative viability: 1.07
NCI-H2009; first compound 0.5 µM
  relative viability: 1.04
LOU-NH91; first compound 0.005 µM
  relative viability: 0.349
LOU-NH91; first compound 0.01581 µM
  relative viability: 0.362
LOU-NH91; first compound 0.05 µM
  relative viability: 0.327
LOU-NH91; first compound 0.1581 µM
  relative viability: 0.321
LOU-NH91; first compound 0.5 µM
  relative viability: 0.275
SK-LU-1; first compound 0.005 µM
  relative viability: 0.205
SK-LU-1; first compound 0.01581 µM
  relative viability: 0.179
SK-LU-1; first compound 0.05 µM
  relative viability: 0.199
SK-LU-1; first compound 0.1581 µM
  relative viability: 0.199
SK-LU-1; first compound 0.5 µM
  relative viability: 0.201
NCI-H2170; first compound 0.005 µM
  relative viability: 0.519
NCI-H2170; first compound 0.01581 µM
  relative viability: 0.806
NCI-H2170; first compound 0.05 µM
  relative viability: 0.552
NCI-H2170; first compound 0.1581 µM
  relative viability: 0.67
NCI-H2170; first compound 0.5 µM
  relative viability: 0.538
BEN; first compound 0.005 µM
  relative viability: 0.269
BEN; first compound 0.01581 µM
  relative viability: 0.271
BEN; first compound 0.05 µM
  relative viability: 0.22
BEN; first compound 0.1581 µM
  relative viability: 0.266
BEN; first compound 0.5 µM
  relative viability: 0.0778
HCC-827; first compound 0.005 µM
  relative viability: 0.681
HCC-827; first compound 0.01581 µM
  relative viability: 0.699
HCC-827; first compound 0.05 µM
  relative viability: 0.49
HCC-827; first compound 0.1581 µM
  relative viability: 0.58
HCC-827; first compound 0.5 µM
  relative viability: 0.69
NCI-H661; first compound 0.005 µM
  relative viability: 0.94
NCI-H661; first compound 0.01581 µM
  relative viability: 0.853
NCI-H661; first compound 0.05 µM
  relative viability: 0.971
NCI-H661; first compound 0.1581 µM
  relative viability: 0.775
NCI-H661; first compound 0.5 µM
  relative viability: 0.884
NCI-H1355; first compound 0.005 µM
  relative viability: 0.725
NCI-H1355; first compound 0.01581 µM
  relative viability: 0.845
NCI-H1355; first compound 0.05 µM
  relative viability: 0.674
NCI-H1355; first compound 0.1581 µM
  relative viability: 0.668
NCI-H1355; first compound 0.5 µM
  relative viability: 0.742
NCI-H2405; first compound 0.005 µM
  relative viability: 0.89
NCI-H2405; first compound 0.01581 µM
  relative viability: 0.727
NCI-H2405; first compound 0.05 µM
  relative viability: 0.755
NCI-H2405; first compound 0.1581 µM
  relative viability: 0.765
NCI-H2405; first compound 0.5 µM
  relative viability: 0.702
NCI-H1734; first compound 0.005 µM
  relative viability: 0.174
NCI-H1734; first compound 0.01581 µM
  relative viability: 0.191
NCI-H1734; first compound 0.1581 µM
  relative viability: 0.182
NCI-H1734; first compound 0.5 µM
  relative viability: 0.16
NCI-H2087; first compound 0.005 µM
  relative viability: 0.207
NCI-H2087; first compound 0.01581 µM
  relative viability: 0.204
NCI-H2087; first compound 0.1581 µM
  relative viability: 0.153
NCI-H2087; first compound 0.5 µM
  relative viability: 0.208
LC-2-ad; first compound 0.005 µM
  relative viability: 0.993
LC-2-ad; first compound 0.01581 µM
  relative viability: 1.16
LC-2-ad; first compound 0.05 µM
  relative viability: 0.912
LC-2-ad; first compound 0.1581 µM
  relative viability: 0.907
LC-2-ad; first compound 0.5 µM
  relative viability: 0.856
NCI-H596; first compound 0.005 µM
  relative viability: 0.34
NCI-H596; first compound 0.01581 µM
  relative viability: 1.14
NCI-H596; first compound 0.1581 µM
  relative viability: 0.867
NCI-H596; first compound 0.5 µM
  relative viability: 0.443
SK-MES-1; first compound 0.005 µM
  relative viability: 0.665
SK-MES-1; first compound 0.01581 µM
  relative viability: 0.985
SK-MES-1; first compound 0.05 µM
  relative viability: 0.959
SK-MES-1; first compound 0.1581 µM
  relative viability: 0.743
SK-MES-1; first compound 0.5 µM
  relative viability: 0.856
NCI-H2228; first compound 0.005 µM
  relative viability: 0.148
NCI-H2228; first compound 0.01581 µM
  relative viability: 0.148
NCI-H2228; first compound 0.1581 µM
  relative viability: 0.146
NCI-H2228; first compound 0.5 µM
  relative viability: 0.142
EKVX; first compound 0.005 µM
  relative viability: 0.94
EKVX; first compound 0.01581 µM
  relative viability: 1.01
EKVX; first compound 0.05 µM
  relative viability: 0.663
EKVX; first compound 0.1581 µM
  relative viability: 0.784
EKVX; first compound 0.5 µM
  relative viability: 0.785
NCI-H647; first compound 0.005 µM
  relative viability: 0.271
NCI-H647; first compound 0.01581 µM
  relative viability: 0.215
NCI-H647; first compound 0.05 µM
  relative viability: 0.17
NCI-H647; first compound 0.1581 µM
  relative viability: 0.206
NCI-H647; first compound 0.5 µM
  relative viability: 0.133
NCI-H1792; first compound 0.005 µM
  relative viability: 0.456
NCI-H1792; first compound 0.01581 µM
  relative viability: 0.685
NCI-H1792; first compound 0.05 µM
  relative viability: 0.351
NCI-H1792; first compound 0.5 µM
  relative viability: 0.527
